How the values were obtained:
[1] = system: patients with Dravet syndrome; assay: Study 1 (ZX008-1501/1502), Phase 3 double-blind placebo-controlled: efficacy on seizures; format: in vivo, human; conditions: 0.8 mg/kg/day; end of the T+M Period
Protocol: The first 119 subjects to be randomized in both identical studies combined were analyzed and reported as Study 1 (FIG. 1), covered by a Statistical Analysis Plan (SAP).
Primary and key secondary endpoints in the Study 1 SAP were pre-determined. All patients were treated twice per day over a period of 14 weeks using an oral syringe to administer the formulation. The treatment period included a two-week titration period and a 12-week maintenance period.
Patients were titrated to their target dose over two weeks, and then remained at that fixed dose for 12 weeks. The mean baseline convulsive seizure frequency across the study groups was approximately 40 seizures per month. 110 (92%) patients completed the study (85% 0.8 mg/kg/day; 100% 0.2 mg/kg/day; 93% placebo).
The proportion of patients who achieved ≥75% seizure reductions, a secondary (non-key) efficacy measure, is also presented.
The mean number of convulsive seizure free days, defined as a day for which diary data are available and no convulsive seizures have been reported, was determined for each treatment group during the Baseline and T+M Periods. […]

[2] = system: patients with Dravet syndrome; conditions: cited from earlier work

CCNC(C)Cc1cccc(C(F)(F)F)c1 (racemic) [Fenfluramine, (RS)—N-ethyl-1-[3-(trifluoromethyl)phenyl]propan-2-amine]
reduction from Baseline in non-convulsive seizure frequency (all types) [1]: 59.1%
>50% Reduction in Seizures (responders) ([2]; Fenfluramine and Valproate, average 0.34 mg/kg/day for between 1 and 22 years): 75%
heart valve defects monitored by echocardiography ([2]; long-term treatment): No clinically relevant defects were identified
types of seizures reduced ([2]; long-term treatment): effectively reduced the incidence of all types of seizures
